# According to patent publication US12441768B2, “Compositions and methods for treating endometriosis” (EndoMet Biosciences, Inc., priority 2018, dated 2025):
# Where a SMILES comes first, the peptide text is derived from it.
# Molecular target: T1, β-catenin (Homo sapiens, UniProt P35222)
# T1 sequence (P35222 1-781): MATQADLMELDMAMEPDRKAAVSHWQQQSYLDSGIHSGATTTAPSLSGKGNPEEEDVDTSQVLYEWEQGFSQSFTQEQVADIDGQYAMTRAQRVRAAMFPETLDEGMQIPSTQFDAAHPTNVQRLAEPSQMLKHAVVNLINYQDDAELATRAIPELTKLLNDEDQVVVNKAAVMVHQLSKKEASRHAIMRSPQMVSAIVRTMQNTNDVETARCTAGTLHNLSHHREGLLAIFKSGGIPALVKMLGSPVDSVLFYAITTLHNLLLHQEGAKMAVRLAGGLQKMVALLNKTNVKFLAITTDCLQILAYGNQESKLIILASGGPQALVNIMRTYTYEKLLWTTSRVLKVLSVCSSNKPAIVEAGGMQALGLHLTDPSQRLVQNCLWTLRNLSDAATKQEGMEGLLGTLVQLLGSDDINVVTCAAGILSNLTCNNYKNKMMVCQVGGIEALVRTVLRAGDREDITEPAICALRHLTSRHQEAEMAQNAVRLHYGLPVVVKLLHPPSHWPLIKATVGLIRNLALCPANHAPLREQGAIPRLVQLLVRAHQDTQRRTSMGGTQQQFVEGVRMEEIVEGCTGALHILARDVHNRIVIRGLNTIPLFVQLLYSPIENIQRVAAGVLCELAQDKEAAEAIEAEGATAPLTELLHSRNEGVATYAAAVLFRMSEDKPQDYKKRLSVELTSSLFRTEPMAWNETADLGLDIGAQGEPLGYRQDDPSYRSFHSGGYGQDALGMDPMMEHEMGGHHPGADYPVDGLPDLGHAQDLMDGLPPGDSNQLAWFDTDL
# Test: KD50 measurement using competitive fluorescence polarization (FP) with labelled TCF4
# Type: binding
# Conditions: fluorescence polarization, β-catenin; for Kd: read-out: β-Cat FP KD
# How it was run: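 5 nM labelled TCF4 was combined with 100 nM β-catenin at room temperature, then inhibitor was titrated in serial dilutions from 10 nM to 30 uM. Polarization was read at excitation 470 nm, emission 520 nm; displacement lowers the signal. Three independent experiments.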
Compound,Kd [nM],β-Cat FP Hill slope
"CCCCCCCCCCCC(=O)N[C@@H](Cc1c[nH]c2ccccc12)C(=O)N(C)[C@@H](C)C(=O)N[C@@H](CCC(N)=O)C(=O)N[C@@H](CO)C(=O)N[C@H](C(=O)N[C@@H](CC(C)C)C(=O)N[C@@H](CC(=O)O)C(=O)N[C@H]1CCCCNC(=O)C[C@@H](C(=O)N[C@H](C(=O)N[C@@H](Cc2c[nH]c3ccccc23)C(N)=O)C(C)C)NC(=O)[C@H](CCC(N)=O)NC(=O)[C@H](C2CCCCC2)NC(=O)[C@H](Cc2c[nH]cn2)NC1=O)[C@@H](C)CC [compound 461] (HELM PEPTIDE1{[CCCCCCCCCCCC(=O)[*:2]].W.[meA].Q.S.I.L.D.K.H.[O=C([C@@H](N[*:1])C1CCCCC1)[*:2]].Q.D.V.W.[am]}$PEPTIDE1,PEPTIDE1,9:R3-13:R3$$$V2.0)",< 400,
"CC[C@H](C)[C@H](NC(=O)[C@H](CO)NC(=O)[C@H](CCC(N)=O)NC(=O)[C@@H]1CCCN1C(=O)[C@H](Cc1c[nH]c2ccccc12)NC(C)=O)C(=O)N[C@@H](CC(C)C)C(=O)N[C@@H](CC(=O)O)C(=O)N[C@H]1CCCCNC(=O)C[C@@H](C(=O)N[C@H](C(=O)N[C@@H](Cc2c[nH]c3ccccc23)C(N)=O)C(C)C)NC(=O)[C@H](CCC(N)=O)NC(=O)[C@H](C2CCCCC2)NC(=O)[C@H](Cc2c[nH]cn2)NC1=O [compound 462] (HELM PEPTIDE1{[ac].W.P.Q.S.I.L.D.K.H.[O=C([C@@H](N[*:1])C1CCCCC1)[*:2]].Q.D.V.W.[am]}$PEPTIDE1,PEPTIDE1,9:R3-13:R3$$$V2.0)",< 400,0.76
"CCCCCCCCCCCC(=O)N[C@@H](Cc1c[nH]c2ccccc12)C(=O)N1CCC[C@H]1C(=O)N[C@@H](CCC(N)=O)C(=O)N[C@@H](CO)C(=O)N[C@H](C(=O)N[C@@H](CC(C)C)C(=O)N[C@@H](CC(=O)O)C(=O)N[C@H]1CCCCNC(=O)C[C@@H](C(=O)N[C@H](C(=O)N[C@@H](Cc2c[nH]c3ccccc23)C(N)=O)C(C)C)NC(=O)[C@H](CCC(N)=O)NC(=O)[C@H](C2CCCCC2)NC(=O)[C@H](Cc2c[nH]cn2)NC1=O)[C@@H](C)CC [compound 463] (HELM PEPTIDE1{[CCCCCCCCCCCC(=O)[*:2]].W.P.Q.S.I.L.D.K.H.[O=C([C@@H](N[*:1])C1CCCCC1)[*:2]].Q.D.V.W.[am]}$PEPTIDE1,PEPTIDE1,9:R3-13:R3$$$V2.0)",< 400,

# The next lines start with the values.
Kd [nM],β-Cat FP Hill slope,Compound
< 400,,"CCCCCCCCCCCC(=O)N[C@@H](Cc1c[nH]c2ccccc12)C(=O)N(C)[C@@H](C)C(=O)N[C@@H](CCC(N)=O)C(=O)N[C@H]1CCCCNC(=O)C[C@@H](C(=O)N[C@@H](Cc2c[nH]cn2)C(=O)N[C@H](C(=O)N[C@@H](CCC(N)=O)C(=O)N[C@@H](C)C(=O)N[C@H](C(=O)N[C@@H](Cc2c[nH]c3ccccc23)C(N)=O)C(C)C)C2CCCCC2)NC(=O)[C@H](CC(N)=O)NC(=O)[C@H](CC(C)C)NC(=O)[C@H]([C@@H](C)CC)NC1=O [compound 459] (HELM PEPTIDE1{[CCCCCCCCCCCC(=O)[*:2]].W.[meA].Q.K.I.L.N.D.H.[O=C([C@@H](N[*:1])C1CCCCC1)[*:2]].Q.A.V.W.[am]}$PEPTIDE1,PEPTIDE1,5:R3-9:R3$$$V2.0)"
< 400,0.7,"CC[C@H](C)[C@H](NC(=O)[C@H](CO)NC(=O)[C@H](CCC(N)=O)NC(=O)[C@H](C)N(C)C(=O)[C@H](Cc1c[nH]c2ccccc12)NC(C)=O)C(=O)N[C@@H](CC(C)C)C(=O)N[C@@H](CC(=O)O)C(=O)N[C@H]1CCCCNC(=O)C[C@@H](C(=O)N[C@H](C(=O)N[C@@H](Cc2c[nH]c3ccccc23)C(N)=O)C(C)C)NC(=O)[C@H](CCC(N)=O)NC(=O)[C@H](C2CCCCC2)NC(=O)[C@H](Cc2c[nH]cn2)NC1=O [compound 460] (HELM PEPTIDE1{[ac].W.[meA].Q.S.I.L.D.K.H.[O=C([C@@H](N[*:1])C1CCCCC1)[*:2]].Q.D.V.W.[am]}$PEPTIDE1,PEPTIDE1,9:R3-13:R3$$$V2.0)"
